Laboratory results published in US5244923A, “Use of 2-(phenoxypropanolamino) ethoxphenoxy-acetic acid and its derivatives to inhibit gastrointestinal motility” (Imperial Chemical Industries PLC, priority 1990, dated 1993).
Counter-ions that a name gives are not always drawn.

Biological target: "atypical" β-adrenoceptors (Cavia porcellus, UniProt Q3HNP5)
Assay: Relaxation of histamine-contracted guinea-pig ileum
Conditions: histamine 0.5 μM contraction, propranolol 5 μM, atropine 1 μM, phentolamine 3 μM present, read-out: EC30 (concentration of agonist producing a relaxation equivalent to 30% histamine inhibition)

"atypical" β-adrenoceptors, sequence (Q3HNP5 1-379): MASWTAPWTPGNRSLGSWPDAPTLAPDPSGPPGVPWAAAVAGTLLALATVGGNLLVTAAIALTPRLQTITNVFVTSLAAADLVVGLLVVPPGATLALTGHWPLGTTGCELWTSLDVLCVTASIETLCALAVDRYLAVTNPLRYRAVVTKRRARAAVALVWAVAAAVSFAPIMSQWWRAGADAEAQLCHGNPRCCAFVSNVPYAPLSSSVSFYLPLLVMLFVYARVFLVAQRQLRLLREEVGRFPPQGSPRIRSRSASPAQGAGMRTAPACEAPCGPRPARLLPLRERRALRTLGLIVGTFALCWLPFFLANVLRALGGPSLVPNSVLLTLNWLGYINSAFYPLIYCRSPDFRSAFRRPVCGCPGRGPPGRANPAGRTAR

COCCNC(=O)COc1ccc(OCCNC[C@H](O)COc2ccccc2)cc1 [(S)-4-[2-(2-hydroxy-3-phenoxypropylamino)ethoxy]-N-(2-methoxyethyl)phenoxyacetamide hydrochloride] gave an EC30 of 940 ± 260 nM.
